B1: PRL: 25 kDa hormone produced by the anterior pituitary (protein, UniProt P01236 29-227, looked up)
Prolactin: LPICPGGAARCQVTLRDLFDRAVVLSHYIHNLSSEMFSEFDKRYTHGRGFITKAINSCHTSSLATPEDKEQAQQMNQKDFLSLIVSILRSWNEPLYHLVTEVRGMQEAPEAILSKAVEIEEQTKRLLEGMELIVSQVHPETKENEIYPVWSGLPSLQMADEESRLSAYYNLLHCLRRDSHKIDNYLKLLKCRIIHNNNC

What was measured:
[1] = system: MDA-MB-468 breast cancer cells; assay: PRL-induced invasion of breast cancer cells, Boyden chambers; format: cell-based; details: 1 μM
Protocol: (§1) FIG. 1A. Bar graph showing inhibition of PRL-induced invasion of breast cancer cells by SMI-1 and SMI-6; FIG. 1B. Bar graph showing only minimal cytotoxicity at indicated concentrations.
(§2) Both SMI-1 and SMI-6 at 1 μM concentrations abrogated PRL-induced invasion of MDA-MB-468 breast cancer cells, using Boyden chambers (FIG. 1A).

[2] = system: MDA-MB-468 breast cancer cells; assay: LDH cytotoxicity assay; format: cell-based; details: especially at 10-fold higher doses
Protocol: as §1, §2

[3] = system: Jurkat human lymphocytes; assay: Autocrine PRL-dependent BrdU uptake (cell proliferation) by flow cytometry; format: cell-based; details: for cell proliferation (BrdU uptake) driven by autocrine PRL: 1 μM SMI 24 hrs in 2% charcoal-stripped serum, then 1 nM PRL 24 hrs
Protocol: FIG. 2. Bar graph showing suppression of autocrine PRL-dependent BrdU uptake in Jurkat lymphocytes by […] of each SMI, as determined by flow cytometry; the top panel indicates percent of live cells.
To examine whether the SMIs can suppress cell proliferation that is driven by autocrine PRL, Jurkat human lymphocytes were utilized, which produce large amounts of autocrine PRL. Autocrine PRL in lymphocytes is well known to promote cell proliferation. The cells were incubated for 24 hrs in 2% charcoal-stripped serum (which is devoid on exogenous lactogenic hormones) with 1 μM of SMI-1 or SMI-6, and then with 1 nM PRL for 24 hrs. BrdU uptake was analyzed by flow cytometry.

[4] = system: postoperative mechanical pain; assay: Mechanical allodynia (anesthesiometer, withdrawal threshold) after hind paw surgery; format: in vivo; details: female mice, one day after surgery; 5 μg peripherally, 5 μg or 25 μg spinally
Protocol: FIG. 4. […] BL—baseline: POP—postoperative pain; SMI-6 was applied either peripherally ([…]), or spinally ([…]); each value is a mean±SME of 6 mice/treatment. Female mice were operated on the right hind paw. One day after surgery, 5 μg SMI-6 was applied either peripherally or centrally/spinally (5 μg or 25 μg) and mice were subjected to thermal nociception or mechanical allodynia (increased sensitization to tactile stimuli). […] SMI-6 at the 25 μg dose was effective in alleviating thermal pain by as much as 75%. For evaluating allodynia, an anesthesiometer was used, which applied a constant ramp of increasing mechanical pressure to the injured paw. […] was measured in grams.

[5] = system: postoperative thermal pain; assay: Thermal nociception (heat hyperalgesia, paw withdrawal latency) after hind paw surgery; format: in vivo; details: female mice
Protocol: FIG. 3. […] Female mice were operated on the right hind paw. One day after surgery, 5 μg SMI-6 was applied either peripherally or centrally/spinally (5 μg or 25 μg) and mice were subjected to thermal nociception or mechanical allodynia (increased sensitization to tactile stimuli). […] SMI-6 at the 25 μg dose was effective in alleviating thermal pain by as much as 75%.

Molecule | PRL-induced invasion of MDA-MB-468 breast cancer cells [1] | toxicity in LDH cytotoxicity assay [2] | cell proliferation (BrdU uptake) driven by autocrine PRL [3] | abrogation of mechanical pain (allodynia, withdrawal threshold) [4] | alleviation of thermal pain ([5]; 25 μg dose) [%] | alleviation of thermal pain (leg withdrawal latency), dose dependence ([5]; one day after surgery, 5 μg peripherally, 5 μg or 25 μg spinally) | effect of added PRL on BrdU uptake ([3]; 1 nM PRL for 24 hrs)
Cn1nc(Nc2ccc(Cl)cc2O)c(N)nc1=O [SMI-1] | abrogated | minimal toxicity | completely blocked | – | – | – | –
CCN(CC)c1ccc(/C=N/NC(=O)c2c(Cl)cnn2C)c(O)c1 [SMI-6] | abrogated | minimal toxicity | completely blocked | equally as effective | ≤ 75 | dose-dependent alleviation | –
B1 | – | – | – | – | – | – | no effect
